Measured values from patent US12296017B2, “Bioorthogonal compositions” (TAMBO, INC., priority 2017, dated 2025).
Converted amounts (≈) assume the structure as drawn. “And” between values parts separate entries of the source, which are not always exact repeats. Equal values may be shown once.

Key:
[1] = test system: methicillin-resistant Staphylococcus Aureus SP231; test: Rat knee joint MRSA infection study; assay type: in vivo; details: rats; TAG (right knee) vs unmodified alginate control gel (left knee); prodrug via tail vein; 24 h; p<0.05
Description: Prodrug, TCO-Dapto was delivered systemically via tail vein. Mean±SEM of n=3, unpaired two-tailed Welch's t-test, *p<0.05.
Female Sprague-Dawley rats of age 6-8 weeks were approved for this study by the Institution of Animal Care and Use Committee (IACUC). Neutropenia was induced with cyclophosphamide intraperitoneally, 4 days (150 mg/kg) and 1 day (100 mg/kg) prior to gel injections. Animals received intra-articular injections of […] of 2.5% w/v of Cy5-modified alginate TAG (right knee) or unmodified alginate-Cy5 gel control (left knee) mixed with […] of 10^8 CFU/mL of methicillin-resistant Staphylococcus Aureus SP231 bacteria. After 2 h, animals received 61 μM of transcyclooctene-modified daptomycin-glycine (TCO-Dapto) via tail vein IV at standard dosing volume. After 24 h of gel injections, knee joints were harvested, homogenized and diluted in Dubelco's Phosphate buffered saline (D-PBS). Homogenized mixture was plated onto trypticase soy agar plates containing 5% sheep's blood duplicate. Bacterial colonies were enumerated following 20 h of incubation and bacterial load as LOG CFU/g of knee joint was determined. Statistical analysis was performed with Welch's two-tailed t-test and * denotes p<0.05. Error bars indicate standard error over means of n=3.

[2] = Aqueous solubility of Example 13B under different buffer conditions
MRSA bacteria = test: In vitro calorimetry (MRSA) in presence and absence of TAG
bacteria = test: Microcalorimetry activity of Vanco-Bis-TCO-Glycine; assay type: cell-based; details: tested up to 64 μg/ml (32 μM), without activating gel
[3] = Phosphate Buffer pH 6.5, final pH 6.1
[4] = Phosphate Buffer pH 7.5, final pH 5.4

Structure (SMILES) | bacterial loading of harvested knee joint [1] | Solubility, Mean ([2]; Buffer: Water, final pH 3.4) [mg/mL] | Solubility, Value ([2]; Buffer: Water, final pH 3.4) | Solubility, Mean [2, 3] [mg/mL] | Solubility, Value [2, 3] | Solubility, Mean [2, 4] [mg/mL] | Solubility, Value [2, 4] | MHIC in the absence of TAG relative to presence of TAG (MRSA bacteria) [×] | activity against bacteria as measured by microcalorimetry (bacteria)
CCCCCCCCCC(=O)NC(Cc1c[nH]c2ccccc12)C(=O)NC(CC(N)=O)C(=O)NC(CC(=O)O)C(=O)NC1C(=O)NCC(=O)NC(CCCNC(=O)OC2C=CCCC(C)(C(=O)NCC(=O)O)CC2)C(=O)NC(CC(=O)O)C(=O)NC(C)C(=O)NC(CC(=O)O)C(=O)NCC(=O)NC(CO)C(=O)NC(C(C)CC(=O)O)C(=O)NC(CC(=O)c2ccccc2N)C(=O)OC1C (stereo not drawn) [Example 13B, Dapto-TCO-Glycine] | reduces MRSA infection in vivo in a knee joint | 0.15 (≈ 0.0795 mM) | 0.15 mg/mL and 0.14 mg/mL | 10.9 (≈ 5.77 mM) | 10.8 mg/mL and 10.9 mg/mL | 38.3 (≈ 20.3 mM) | 38.1 mg/mL and 38.3 mg/mL | – | –
CC(C)CC(C(=O)N[C@H]1C(=O)N[C@@H](CC(N)=O)C(=O)N[C@H]2C(=O)N[C@H]3C(=O)N[C@H](C(=O)N[C@H](C(=O)O)c4cc(O)cc(O)c4-c4cc3ccc4O)[C@H](O)c3ccc(c(Cl)c3)Oc3cc2cc(c3O[C@@H]2O[C@H](CO)[C@@H](O)[C@H](O)[C@H]2O[C@H]2C[C@](C)(NC(=O)O[C@@H]3/C=C/CC[C@](C)(C(=O)NCC(=O)O)CC3)[C@H](O)[C@H](C)O2)Oc2ccc(cc2Cl)[C@H]1O)N(C)C(=O)O[C@@H]1/C=C/CC[C@](C)(C(=O)NCC(=O)O)CC1 (stereo partly drawn) [Example 13C, Vanco-Bis-TCO-glycine Conjugate] | – | – | – | – | – | – | – | 8 | no activity
